Results as given in US20220143143A1, “USE OF ACTIVATORS OF THE ARYL HYDROCARBON RECEPTOR FOR TREATING GLUTEN-INDUCED GASTROINTESTINAL DISEASES” (McMaster University, priority 2019, published 2022).

Key:
Format in all cases: in vivo
AhR pathway genes = test: qPCR expression of AhR pathway and inflammation genes in duodenum; conditions: gluten treated NOD/DQ8 mice; 1 μg/mouse i.p. at day 1, 10, 20 and 30; vs vehicle (DMSO)
Description: AhR activation in duodenal biopsies was measured through qPCR to assess the expression of AhR pathway genes: AhR, CYP1A1, IL-22 and IL-17. IL-15 gene expression was also measured by qPCR as an inflammation marker. Total RNA was isolated from mouse duodenum samples using RNeasy Mini Kit (Qiagen, Hilden, Germany) with the DNase treatment, according to the manufacturer's instructions. RNA concentration was determined using a NanoDrop spectrophotometer […]. Quantitative RT-PCR was performed using iScript Reverse Transcriptase (Bio-Rad) and then a SsoFast EvaGreen Supermix (Bio-Rad) in a Mastercycler ep realplex apparatus (Eppendorf) with specific mouse oligonucleotides. Additional information on the primers used is available in Table 2. qPCR data were analyzed using the 2-ΔΔCt quantification method with mouse Gapdh as the endogenous control.

NOD/DQ8 mice [1] = test: Fecal lipocalin-2 quantification; conditions: gluten treated NOD/DQ8 mice; 1 μg/mouse i.p. at day 1, 10, 20 and 30; vs vehicle (DMSO)
NOD/DQ8 mice [2] = test: Histology and immunohistochemistry of proximal small intestine (V/C ratios, CD3+ IEL counts); conditions: gluten treated NOD/DQ8 mice; 1 μg/mouse i.p. at day 1, 10, 20 and 30; vs vehicle (DMSO)
Description: For histology and immunohistochemistry studies, cross-sections of the proximal small intestine were fixed in 10% formalin and embedded in paraffin. Enteropathy was determined by measuring villus-to-crypt (V/C) ratios in a blinded fashion. The presence of IELs (intraepithelial lymphocytes) in the sections was determined by immunostaining for CD3+ cells. Briefly, sections were stained with polyclonal rabbit anti-mouse CD3 (Dako) and in each section, and intraepithelial lymphocytosis was determined by counting CD3+ IELs per 20 enterocytes in five randomly chosen villus tips.

NOD/DQ8 mice [3] = test: Gut barrier function by Ussing chamber technique (jejunum); conditions: gluten treated NOD/DQ8 mice, 1 μg/mouse i.p. at day 1, 10, 20 and 30, vs vehicle (DMSO)
Description: Gut barrier function was assessed by a Ussing chamber technique. Briefly, sections of jejunum from each mouse were mounted in a Ussing Chamber with an opening of 0.6 cm^2. Net active transport across the epithelium was measured via a short circuit current response (Isc, μA) injected through the tissue under voltage-clamp conditions. Baseline Isc (μA/cm^2) was recorded at equilibrium 20 min after mounting jejunum sections. Mucosal-to-serosal transport of macromolecules was assessed by adding ^51Cr-EDTA in the luminal side of the chamber. ^51Cr-EDTA fluxes were calculated by measuring the proportion of radioactive ^51Cr-EDTA detected in the serosal side of the chamber after 2 hours compared to the radioactive ^51Cr-EDTA placed in the luminal side at the beginning of experiment.

O=Cc1c2c(cc3c1=Nc1ccccc1-3)=Nc1ccccc1-2 [Ficz, 6-formylindolo(3,2-b) carbazole]
intestinal IL-15 expression (AhR pathway genes): did not affect | intestinal expression of AhR target genes (Cyp1a1, Il22, Il17) (AhR pathway genes): even higher expression | other markers of overall gut inflammation (fecal lipocalin-2, FIG. 17) (NOD/DQ8 mice [1]): improved | IEL counts (NOD/DQ8 mice [2]): improved | V/C ratios (NOD/DQ8 mice [2]): improved | paracellular permeability (NOD/DQ8 mice [3]; 51Cr-EDTA): improved | ion transport (NOD/DQ8 mice [3]): improved
